# Source: PubChem BioAssay (NCI)
#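 Interpolation was linear, between the two tested concentrations surrounding the appropriate level; five concentrations were tested over 48 hours in 96-well plates. Definition used: TGI = concentration required for complete inhibition of growth.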
# Assays:
# Experiment in all cases: DTP human tumour cell line panel, 48 h
# 786-0 renal = tested on: 786-0 renal
# A498 renal = tested on: A498 renal
# A549 NSCLC = tested on: A549 NSCLC
# ACHN renal = tested on: ACHN renal
# CAKI-1 renal = tested on: CAKI-1 renal
# CCRF-CEM leukemia = tested on: CCRF-CEM leukemia
# COLO 205 colon = tested on: COLO 205 colon
# DU-145 prostate = tested on: DU-145 prostate
# EKVX NSCLC = tested on: EKVX NSCLC
# HCC-2998 colon = tested on: HCC-2998 colon
# HCT-116 colon = tested on: HCT-116 colon
# HCT-15 colon = tested on: HCT-15 colon
# HL-60(TB) leukemia = tested on: HL-60(TB) leukemia
# HOP-62 NSCLC = tested on: HOP-62 NSCLC
# HOP-92 NSCLC = tested on: HOP-92 NSCLC
# HS 578T breast = tested on: HS 578T breast
# HT29 colon = tested on: HT29 colon
# IGROV1 ovarian = tested on: IGROV1 ovarian
# K-562 leukemia = tested on: K-562 leukemia
# KM12 colon = tested on: KM12 colon
# LOX IMVI melanoma = tested on: LOX IMVI melanoma
# M14 melanoma = tested on: M14 melanoma
# MALME-3M melanoma = tested on: MALME-3M melanoma
# MCF7 breast = tested on: MCF7 breast
# MDA-MB-231 breast = tested on: MDA-MB-231 breast
# MDA-MB-435 = tested on: MDA-MB-435
# MDA-N = tested on: MDA-N
# MOLT-4 leukemia = tested on: MOLT-4 leukemia
# NCI-H226 lung = tested on: NCI-H226 lung
# NCI-H23 lung = tested on: NCI-H23 lung
# NCI-H460 lung = tested on: NCI-H460 lung
# NCI/ADR-RES ovarian = tested on: NCI/ADR-RES ovarian
# OVCAR-3 ovarian = tested on: OVCAR-3 ovarian
# OVCAR-4 ovarian = tested on: OVCAR-4 ovarian
# OVCAR-5 ovarian = tested on: OVCAR-5 ovarian
# OVCAR-8 ovarian = tested on: OVCAR-8 ovarian
# PC-3 prostate = tested on: PC-3 prostate
# RPMI-8226 leukemia = tested on: RPMI-8226 leukemia
# RXF 393 renal = tested on: RXF 393 renal
# SF-268 CNS = tested on: SF-268 CNS
# SF-295 CNS = tested on: SF-295 CNS
# SF-539 CNS = tested on: SF-539 CNS
# SK-MEL-2 melanoma = tested on: SK-MEL-2 melanoma
# SK-MEL-28 melanoma = tested on: SK-MEL-28 melanoma
# SK-OV-3 ovarian = tested on: SK-OV-3 ovarian
# SN12C renal = tested on: SN12C renal
# SNB-19 CNS = tested on: SNB-19 CNS
# SNB-75 CNS = tested on: SNB-75 CNS
# SR leukemia = tested on: SR leukemia
# SW-620 colon = tested on: SW-620 colon
# T-47D breast = tested on: T-47D breast
# TK-10 renal = tested on: TK-10 renal
# U251 CNS = tested on: U251 CNS
# UACC-257 melanoma = tested on: UACC-257 melanoma
# UACC-62 melanoma = tested on: UACC-62 melanoma
# UO-31 renal = tested on: UO-31 renal
# SK-MEL-5 melanoma = tested on: SK-MEL-5 melanoma
# NCI-H522 lung = tested on: NCI-H522 lung
smiles,measurement,setting,value
O=C1NC2c3c(I)sc(I)c3/C(=N\O)C2O1 (stereo not drawn),TGI,786-0 renal,57.1 µM
same,TGI,A498 renal,> 100 µM
same,TGI,A549 NSCLC,> 100 µM
same,TGI,ACHN renal,33.6 µM
same,TGI,CAKI-1 renal,> 100 µM
same,TGI,CCRF-CEM leukemia,80.3 µM
same,TGI,COLO 205 colon,48.8 µM
same,TGI,DU-145 prostate,> 100 µM
same,TGI,EKVX NSCLC,35.1 µM
same,TGI,HCC-2998 colon,> 100 µM
same,TGI,HCT-116 colon,75.4 µM
same,TGI,HCT-15 colon,> 100 µM
same,TGI,HL-60(TB) leukemia,83.5 µM
same,TGI,HOP-62 NSCLC,> 100 µM
same,TGI,HOP-92 NSCLC,68.1 µM
same,TGI,HS 578T breast,70.4 µM
same,TGI,HT29 colon,33.4 µM
same,TGI,IGROV1 ovarian,45 µM
same,TGI,K-562 leukemia,> 100 µM
same,TGI,KM12 colon,> 100 µM
same,TGI,LOX IMVI melanoma,> 100 µM
same,TGI,M14 melanoma,> 100 µM
same,TGI,MALME-3M melanoma,50.2 µM
same,TGI,MCF7 breast,> 100 µM
same,TGI,MDA-MB-231 breast,95.8 µM
same,TGI,MDA-MB-435,> 100 µM
same,TGI,MDA-N,> 100 µM
same,TGI,MOLT-4 leukemia,> 100 µM
same,TGI,NCI-H226 lung,> 100 µM
same,TGI,NCI-H23 lung,56.8 µM
same,TGI,NCI-H460 lung,> 100 µM
same,TGI,NCI/ADR-RES ovarian,47.7 µM
same,TGI,OVCAR-3 ovarian,40.2 µM
same,TGI,OVCAR-4 ovarian,89.8 µM
same,TGI,OVCAR-5 ovarian,> 100 µM
same,TGI,OVCAR-8 ovarian,43.4 µM
same,TGI,PC-3 prostate,> 100 µM
same,TGI,RPMI-8226 leukemia,> 100 µM
same,TGI,RXF 393 renal,44.5 µM
same,TGI,SF-268 CNS,67.8 µM
same,TGI,SF-295 CNS,> 100 µM
same,TGI,SF-539 CNS,42.6 µM
same,TGI,SK-MEL-2 melanoma,> 100 µM
same,TGI,SK-MEL-28 melanoma,> 100 µM
same,TGI,SK-OV-3 ovarian,> 100 µM
same,TGI,SN12C renal,> 100 µM
same,TGI,SNB-19 CNS,58.2 µM
same,TGI,SNB-75 CNS,> 100 µM
same,TGI,SR leukemia,> 100 µM
same,TGI,SW-620 colon,60.6 µM
same,TGI,T-47D breast,> 100 µM
same,TGI,TK-10 renal,> 100 µM
same,TGI,U251 CNS,76.9 µM
same,TGI,UACC-257 melanoma,> 100 µM
same,TGI,UACC-62 melanoma,> 100 µM
same,TGI,UO-31 renal,32.7 µM
O=C(C=P(c1ccccc1)(c1ccccc1)c1ccccc1)c1ccc(-c2cccc([N+](=O)[O-])c2)cc1,TGI,786-0 renal,20.8 µM
same,TGI,A498 renal,9.11 µM
same,TGI,A549 NSCLC,12.7 µM
same,TGI,ACHN renal,7.87 µM
same,TGI,CAKI-1 renal,9.38 µM
same,TGI,CCRF-CEM leukemia,7.25 µM
same,TGI,COLO 205 colon,3.31 µM
same,TGI,DU-145 prostate,35.1 µM
same,TGI,EKVX NSCLC,11.7 µM
same,TGI,HCC-2998 colon,4.75 µM
same,TGI,HCT-116 colon,6.24 µM
same,TGI,HCT-15 colon,12.7 µM
same,TGI,HL-60(TB) leukemia,5.08 µM
same,TGI,HOP-62 NSCLC,27.6 µM
same,TGI,HOP-92 NSCLC,6.92 µM
same,TGI,HS 578T breast,22.4 µM
same,TGI,HT29 colon,3.13 µM
same,TGI,K-562 leukemia,7.98 µM
same,TGI,KM12 colon,20 µM
same,TGI,LOX IMVI melanoma,4.15 µM
same,TGI,M14 melanoma,4.64 µM
same,TGI,MALME-3M melanoma,9.31 µM
same,TGI,MCF7 breast,10.6 µM
same,TGI,MDA-MB-231 breast,8 µM
same,TGI,MDA-MB-435,5.4 µM
same,TGI,MDA-N,9.09 µM
same,TGI,MOLT-4 leukemia,5.55 µM
same,TGI,NCI-H226 lung,19.9 µM
same,TGI,NCI-H23 lung,21.2 µM
same,TGI,NCI-H460 lung,4.27 µM
same,TGI,NCI/ADR-RES ovarian,25.1 µM
same,TGI,OVCAR-3 ovarian,9.69 µM
same,TGI,OVCAR-4 ovarian,9.52 µM
same,TGI,OVCAR-5 ovarian,14.9 µM
same,TGI,PC-3 prostate,18.6 µM
same,TGI,RPMI-8226 leukemia,3.98 µM
same,TGI,RXF 393 renal,9.34 µM
same,TGI,SF-268 CNS,> 100 µM
same,TGI,SF-295 CNS,> 100 µM
same,TGI,SF-539 CNS,15.3 µM
same,TGI,SK-MEL-2 melanoma,3.78 µM
same,TGI,SK-MEL-28 melanoma,18.2 µM
same,TGI,SK-MEL-5 melanoma,5.91 µM
same,TGI,SK-OV-3 ovarian,18.6 µM
same,TGI,SN12C renal,12 µM
same,TGI,SNB-19 CNS,> 100 µM
same,TGI,SNB-75 CNS,6.86 µM
same,TGI,SR leukemia,8.09 µM
same,TGI,SW-620 colon,14.5 µM
same,TGI,T-47D breast,27.1 µM
same,TGI,TK-10 renal,55.9 µM
same,TGI,U251 CNS,13.2 µM
same,TGI,UACC-257 melanoma,15.8 µM
same,TGI,UACC-62 melanoma,15.9 µM
same,TGI,UO-31 renal,4.8 µM
COC(=O)[C@]12CC[C@H]3CN(C(=O)OCc4ccccc4)[C@H]([C@H]31)[C@H](c1ccco1)N2,TGI,786-0 renal,> 100 µM
same,TGI,A498 renal,36.3 µM
same,TGI,A549 NSCLC,> 100 µM
same,TGI,ACHN renal,> 100 µM
same,TGI,CAKI-1 renal,> 100 µM
same,TGI,CCRF-CEM leukemia,> 100 µM
same,TGI,COLO 205 colon,40.9 µM
same,TGI,DU-145 prostate,> 100 µM
same,TGI,EKVX NSCLC,> 100 µM
same,TGI,HCC-2998 colon,> 100 µM
same,TGI,HCT-116 colon,> 100 µM
same,TGI,HCT-15 colon,84.5 µM
same,TGI,HL-60(TB) leukemia,84.4 µM
same,TGI,HOP-62 NSCLC,> 100 µM
same,TGI,HOP-92 NSCLC,> 100 µM
same,TGI,HS 578T breast,> 100 µM
same,TGI,HT29 colon,> 100 µM
same,TGI,IGROV1 ovarian,> 100 µM
same,TGI,K-562 leukemia,> 100 µM
same,TGI,KM12 colon,> 100 µM
same,TGI,LOX IMVI melanoma,> 100 µM
same,TGI,M14 melanoma,> 100 µM
same,TGI,MALME-3M melanoma,80.2 µM
same,TGI,MCF7 breast,> 100 µM
same,TGI,MDA-MB-231 breast,> 100 µM
same,TGI,MDA-MB-435,61.8 µM
same,TGI,MDA-N,> 100 µM
same,TGI,MOLT-4 leukemia,64.5 µM
same,TGI,NCI-H226 lung,> 100 µM
same,TGI,NCI-H23 lung,42.2 µM
same,TGI,NCI-H460 lung,> 100 µM
same,TGI,NCI-H522 lung,39.1 µM
same,TGI,NCI/ADR-RES ovarian,51.7 µM
same,TGI,OVCAR-3 ovarian,> 100 µM
same,TGI,OVCAR-4 ovarian,31.2 µM
same,TGI,OVCAR-5 ovarian,> 100 µM
same,TGI,OVCAR-8 ovarian,> 100 µM
same,TGI,PC-3 prostate,> 100 µM
same,TGI,RPMI-8226 leukemia,> 100 µM
same,TGI,RXF 393 renal,> 100 µM
same,TGI,SF-268 CNS,> 100 µM
same,TGI,SF-295 CNS,> 100 µM
same,TGI,SF-539 CNS,> 100 µM
same,TGI,SK-MEL-2 melanoma,> 100 µM
same,TGI,SK-MEL-28 melanoma,> 100 µM
same,TGI,SK-MEL-5 melanoma,37.3 µM
same,TGI,SK-OV-3 ovarian,> 100 µM
same,TGI,SN12C renal,> 100 µM
same,TGI,SNB-19 CNS,> 100 µM
same,TGI,SR leukemia,> 100 µM
same,TGI,SW-620 colon,> 100 µM
same,TGI,T-47D breast,> 100 µM
same,TGI,TK-10 renal,> 100 µM
same,TGI,U251 CNS,> 100 µM
same,TGI,UACC-257 melanoma,81.4 µM
same,TGI,UACC-62 melanoma,> 100 µM
same,TGI,UO-31 renal,> 100 µM
